The values that follow are results of earlier work, collected in patent US5358942A, “Inhibition of protein kinase C with Cyclic phosphonate compounds” (Louisiana State University, priority 1993, dated 1994).

The subject of this series is carnitine palmitoyltransferase (CPT).

Turning to `CCCCCCCCCCCCCCC[C@@]1(O)C[N+](C)(C)C[C@H](CC(=O)O)O1.[Br-]` [Hemipalmitoyl carnitinium (HPC), Hemipalmitoyl carnitinium], the “inhibition of carnitine palmitoyltransferase (CPT)” value is listed as “potently inhibits”.
